{"source": "paper PMC12136037", "about": "“Type II kinase inhibitors that target Parkinson’s disease–associated LRRK2” (Science Advances, 2025)", "assay_in_all_cases": "nanoBRET off-target validation", "format_in_all_cases": "cell-based", "key": {"CLK1": {"target": "T1, CLK1 (Homo sapiens, UniProt P49759)", "T1 construct": "host or cells: HEK293T (ATCC CRL-3216)", "T1 sequence (P49759 whole entry, the tested form may be a part)": "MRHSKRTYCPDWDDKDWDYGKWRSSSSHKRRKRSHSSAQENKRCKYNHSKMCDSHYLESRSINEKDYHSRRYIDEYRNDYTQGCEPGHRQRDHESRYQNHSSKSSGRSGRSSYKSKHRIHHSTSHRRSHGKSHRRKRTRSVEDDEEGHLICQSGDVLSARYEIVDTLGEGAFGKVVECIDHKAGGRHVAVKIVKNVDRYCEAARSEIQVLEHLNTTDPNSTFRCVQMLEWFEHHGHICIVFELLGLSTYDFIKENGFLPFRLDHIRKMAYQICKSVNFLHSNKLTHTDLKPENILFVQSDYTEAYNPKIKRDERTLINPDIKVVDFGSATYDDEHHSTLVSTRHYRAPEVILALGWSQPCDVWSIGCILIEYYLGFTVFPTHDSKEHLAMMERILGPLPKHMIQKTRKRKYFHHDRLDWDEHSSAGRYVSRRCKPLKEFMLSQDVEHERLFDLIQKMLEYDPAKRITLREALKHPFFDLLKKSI", "method": "(§1) The assay was performed as described previously ([61]). In brief, full-length kinases as listed in table S6 were obtained as plasmids cloned in frame with terminal NanoLuc-fusion (gift from Promega; table S6). […] Serially diluted inhibitor and corresponding tracer as listed in table S6 at the Tracer KD concentration taken from TracerDB (tracerdb.org) ([62]) were pipetted into white 384-well plates (Greiner, 781207) using an ECHO acoustic dispenser (Labcyte). The corresponding protein-transfected cells were added and reseeded at a density of 2 × 10^5 cells/ml after trypsinization and resuspending in Opti-MEM without phenol red (Life Technologies). The system was allowed to equilibrate for 3 hours at 37°C/5% CO2 before bioluminescence resonance energy transfer (BRET) measurements. To measure BRET, NanoBRET NanoGlo Substrate + extracellular NanoLuc Inhibitor (Promega, N2540) was added as per the manufacturer’s protocol, and filtered luminescence was measured on a PHERAstar plate reader (BMG Labtech) equipped with a luminescence filter pair [450-nm BP filter (donor) and 610-nm LP filter (acceptor)]. […] (For step-by-step protocol, see www.eubopen.org/sites/www.eubopen.org/files/attachments/2021/NanoBRET-IC50_v1_0.pdf.)"}, "DDR2": {"target": "T2, DDR2 (Homo sapiens, UniProt Q16832)", "T2 construct": "host or cells: HEK293T (ATCC CRL-3216)", "T2 sequence (Q16832 22-855)": "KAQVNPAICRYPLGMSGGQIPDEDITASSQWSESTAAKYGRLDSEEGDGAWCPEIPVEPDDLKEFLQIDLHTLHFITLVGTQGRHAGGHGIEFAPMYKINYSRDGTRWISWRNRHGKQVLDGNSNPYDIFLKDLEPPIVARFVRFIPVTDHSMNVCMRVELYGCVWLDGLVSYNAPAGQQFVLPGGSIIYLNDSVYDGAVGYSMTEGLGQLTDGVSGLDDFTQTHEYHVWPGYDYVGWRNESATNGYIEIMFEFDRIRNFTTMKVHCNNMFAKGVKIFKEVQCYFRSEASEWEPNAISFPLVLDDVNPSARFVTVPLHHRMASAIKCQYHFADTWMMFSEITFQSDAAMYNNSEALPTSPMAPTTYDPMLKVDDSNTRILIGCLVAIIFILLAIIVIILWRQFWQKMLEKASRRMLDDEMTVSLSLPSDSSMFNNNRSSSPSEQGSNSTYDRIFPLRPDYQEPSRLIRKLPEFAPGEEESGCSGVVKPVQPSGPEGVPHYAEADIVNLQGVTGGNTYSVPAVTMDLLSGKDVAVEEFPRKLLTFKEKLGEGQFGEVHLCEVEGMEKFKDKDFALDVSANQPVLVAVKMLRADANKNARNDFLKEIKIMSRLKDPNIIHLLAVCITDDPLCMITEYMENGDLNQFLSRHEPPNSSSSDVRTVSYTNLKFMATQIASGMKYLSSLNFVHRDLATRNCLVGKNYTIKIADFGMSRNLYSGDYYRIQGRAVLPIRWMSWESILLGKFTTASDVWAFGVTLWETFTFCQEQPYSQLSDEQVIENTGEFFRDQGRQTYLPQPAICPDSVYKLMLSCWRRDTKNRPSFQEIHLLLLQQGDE", "method": "as §1"}, "JNK2": {"target": "T3, JNK2 (Homo sapiens, UniProt P45984)", "T3 construct": "host or cells: HEK293T (ATCC CRL-3216)", "T3 sequence (P45984 whole entry)": "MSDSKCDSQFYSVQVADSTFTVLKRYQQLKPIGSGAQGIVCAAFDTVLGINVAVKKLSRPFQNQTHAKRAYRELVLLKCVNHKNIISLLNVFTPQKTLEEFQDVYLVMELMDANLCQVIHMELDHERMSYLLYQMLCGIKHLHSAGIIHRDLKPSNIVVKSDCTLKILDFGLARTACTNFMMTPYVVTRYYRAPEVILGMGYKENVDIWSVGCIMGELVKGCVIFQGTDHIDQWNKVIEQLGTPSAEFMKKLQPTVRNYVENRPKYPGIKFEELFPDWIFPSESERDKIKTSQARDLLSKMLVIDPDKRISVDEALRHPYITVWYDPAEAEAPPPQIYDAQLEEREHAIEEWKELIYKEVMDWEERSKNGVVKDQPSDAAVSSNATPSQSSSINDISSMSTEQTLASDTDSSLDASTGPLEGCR", "conditions": "JNK2, two replicates", "method": "as §1"}}, "note": "pEC50: −log10 of the molar value. “And” between values parts separate entries of the source, which are not always exact repeats. Identical values can stand only once. Like-named read-outs stand apart in the source and are kept apart here."}
{"smiles": "CCSc1nc(NC)c2c(-c3cccc(NC(=O)Nc4cc(C(C)(C)C)nn4-c4ccc(C)cc4)c3)c[nH]c2n1", "note": "[Compound 32]", "values": [{"measurement": "pEC50", "setting": "CLK1", "value": 5.22}, {"measurement": "nanoBRET response normalized to 0% (no tracer) and 100% (no inhibitor) control", "setting": "CLK1; CLK1, inhibitor 8 nM, two replicates, listed as RN341, 0.008 µM", "value": 96.3388, "unit": "%"}, {"measurement": "normalized NanoBRET tracer signal at 0.008 µM", "setting": "CLK1; CLK1, inhibitor 8 nM, two replicates, read-out: nanoBRET response normalized to 0% (no tracer) and 100% (no inhibitor) control", "value": 99.4, "unit": "%"}, {"measurement": "nanoBRET response normalized to 0% (no tracer) and 100% (no inhibitor) control", "setting": "CLK1; CLK1, inhibitor 16 nM, two replicates, listed as RN341, 0.016 µM", "value": 93.1575, "unit": "%"}, {"measurement": "normalized NanoBRET tracer signal at 0.016 µM", "setting": "CLK1; CLK1, inhibitor 16 nM, two replicates, read-out: nanoBRET response normalized to 0% (no tracer) and 100% (no inhibitor) control", "value": 93.9, "unit": "%"}, {"measurement": "nanoBRET response normalized to 0% (no tracer) and 100% (no inhibitor) control", "setting": "CLK1; CLK1, inhibitor 50 nM, two replicates, listed as RN341, 0.05 µM", "value": 98.6143, "unit": "%"}, {"measurement": "normalized NanoBRET tracer signal at 0.05 µM", "setting": "CLK1; CLK1, inhibitor 50 nM, two replicates, read-out: nanoBRET response normalized to 0% (no tracer) and 100% (no inhibitor) control", "value": 97.1, "unit": "%"}, {"measurement": "nanoBRET response normalized to 0% (no tracer) and 100% (no inhibitor) control", "setting": "CLK1; CLK1, inhibitor 250 nM, two replicates, listed as RN341, […]", "value": 91.8848, "unit": "%"}, {"measurement": "normalized NanoBRET tracer signal at […]", "setting": "CLK1; CLK1, inhibitor 250 nM, two replicates, read-out: nanoBRET response normalized to 0% (no tracer) and 100% (no inhibitor) control", "value": 93.8, "unit": "%"}, {"measurement": "nanoBRET response normalized to 0% (no tracer) and 100% (no inhibitor) control", "setting": "CLK1; CLK1, inhibitor 500 nM, two replicates, listed as RN341, 0.5 µM", "value": 89.5722, "unit": "%"}, {"measurement": "normalized NanoBRET tracer signal at 0.5 µM", "setting": "CLK1; CLK1, inhibitor 500 nM, two replicates, read-out: nanoBRET response normalized to 0% (no tracer) and 100% (no inhibitor) control", "value": 87.8, "unit": "%"}, {"measurement": "nanoBRET response normalized to 0% (no tracer) and 100% (no inhibitor) control", "setting": "CLK1; CLK1, inhibitor 2500 nM, two replicates, listed as RN341, […]", "value": 66.5911, "unit": "%"}, {"measurement": "normalized NanoBRET tracer signal at […]", "setting": "CLK1; CLK1, inhibitor 2500 nM, two replicates, read-out: nanoBRET response normalized to 0% (no tracer) and 100% (no inhibitor) control", "value": 70.4, "unit": "%"}, {"measurement": "nanoBRET response normalized to 0% (no tracer) and 100% (no inhibitor) control", "setting": "CLK1; CLK1, inhibitor 5000 nM, two replicates, listed as RN341, 5 µM", "value": 68.3349, "unit": "%"}, {"measurement": "normalized NanoBRET tracer signal at 5 µM", "setting": "CLK1; CLK1, inhibitor 5000 nM, two replicates, read-out: nanoBRET response normalized to 0% (no tracer) and 100% (no inhibitor) control", "value": 62, "unit": "%"}, {"measurement": "nanoBRET response normalized to 0% (no tracer) and 100% (no inhibitor) control", "setting": "CLK1; CLK1, inhibitor 25000 nM, two replicates, listed as RN341, 25 µM", "value": 18.5705, "unit": "%"}, {"measurement": "normalized NanoBRET tracer signal at 25 µM", "setting": "CLK1; CLK1, inhibitor 25000 nM, two replicates, read-out: nanoBRET response normalized to 0% (no tracer) and 100% (no inhibitor) control", "value": 17.2, "unit": "%"}, {"measurement": "pEC50", "setting": "DDR2", "value": "< 4.70"}, {"measurement": "remaining tracer BRET signal at 0.008 µM", "setting": "DDR2; DDR2, inhibitor 8 nM, two replicates, read-out: nanoBRET response normalized to 0% (no tracer) and 100% (no inhibitor) control", "value": "102% and 95.3%"}, {"measurement": "nanoBRET response normalized to 0% (no tracer) and 100% (no inhibitor) control", "setting": "DDR2; DDR2, inhibitor 16 nM, two replicates, listed as RN341, 0.016 µM", "value": 102.202, "unit": "%"}, {"measurement": "remaining tracer BRET signal at 0.016 µM", "setting": "DDR2; DDR2, inhibitor 16 nM, two replicates, read-out: nanoBRET response normalized to 0% (no tracer) and 100% (no inhibitor) control", "value": 105, "unit": "%"}, {"measurement": "nanoBRET response normalized to 0% (no tracer) and 100% (no inhibitor) control", "setting": "DDR2; DDR2, inhibitor 50 nM, two replicates, listed as RN341, 0.05 µM", "value": 98.4821, "unit": "%"}, {"measurement": "remaining tracer BRET signal at 0.05 µM", "setting": "DDR2; DDR2, inhibitor 50 nM, two replicates, read-out: nanoBRET response normalized to 0% (no tracer) and 100% (no inhibitor) control", "value": 114, "unit": "%"}, {"measurement": "nanoBRET response normalized to 0% (no tracer) and 100% (no inhibitor) control", "setting": "DDR2; DDR2, inhibitor 250 nM, two replicates, listed as RN341, […]", "value": 104.362, "unit": "%"}, {"measurement": "remaining tracer BRET signal at […]", "setting": "DDR2; DDR2, inhibitor 250 nM, two replicates, read-out: nanoBRET response normalized to 0% (no tracer) and 100% (no inhibitor) control", "value": 123, "unit": "%"}, {"measurement": "nanoBRET response normalized to 0% (no tracer) and 100% (no inhibitor) control", "setting": "DDR2; DDR2, inhibitor 500 nM, two replicates, listed as RN341, 0.5 µM", "value": 117.148, "unit": "%"}, {"measurement": "remaining tracer BRET signal at 0.5 µM", "setting": "DDR2; DDR2, inhibitor 500 nM, two replicates, read-out: nanoBRET response normalized to 0% (no tracer) and 100% (no inhibitor) control", "value": 129, "unit": "%"}, {"measurement": "nanoBRET response normalized to 0% (no tracer) and 100% (no inhibitor) control", "setting": "DDR2; DDR2, inhibitor 2500 nM, two replicates, listed as RN341, […]", "value": 86.9292, "unit": "%"}, {"measurement": "remaining tracer BRET signal at […]", "setting": "DDR2; DDR2, inhibitor 2500 nM, two replicates, read-out: nanoBRET response normalized to 0% (no tracer) and 100% (no inhibitor) control", "value": 103, "unit": "%"}, {"measurement": "nanoBRET response normalized to 0% (no tracer) and 100% (no inhibitor) control", "setting": "DDR2; DDR2, inhibitor 5000 nM, two replicates, listed as RN341, 5 µM", "value": 105.865, "unit": "%"}, {"measurement": "remaining tracer BRET signal at 5 µM", "setting": "DDR2; DDR2, inhibitor 5000 nM, two replicates, read-out: nanoBRET response normalized to 0% (no tracer) and 100% (no inhibitor) control", "value": 89.9, "unit": "%"}, {"measurement": "nanoBRET response normalized to 0% (no tracer) and 100% (no inhibitor) control", "setting": "DDR2; DDR2, inhibitor 25000 nM, two replicates, listed as RN341, 25 µM", "value": 54.8632, "unit": "%"}, {"measurement": "remaining tracer BRET signal at 25 µM", "setting": "DDR2; DDR2, inhibitor 25000 nM, two replicates, read-out: nanoBRET response normalized to 0% (no tracer) and 100% (no inhibitor) control", "value": 55.4, "unit": "%"}, {"measurement": "nanoBRET response normalized to 0% (no tracer) and 100% (no inhibitor) control", "setting": "JNK2; inhibitor 8 nM, listed as RN341, 0.008 µM", "value": 97.2218, "unit": "%"}, {"measurement": "remaining activity at 0.008 µM", "setting": "JNK2; inhibitor 8 nM, read-out: nanoBRET response normalized to 0% (no tracer) and 100% (no inhibitor) control", "value": 103, "unit": "%"}, {"measurement": "nanoBRET response normalized to 0% (no tracer) and 100% (no inhibitor) control", "setting": "JNK2; inhibitor 16 nM, listed as RN341, 0.016 µM", "value": 96.1223, "unit": "%"}, {"measurement": "remaining activity at 0.016 µM", "setting": "JNK2; inhibitor 16 nM, read-out: nanoBRET response normalized to 0% (no tracer) and 100% (no inhibitor) control", "value": 95.8, "unit": "%"}, {"measurement": "nanoBRET response normalized to 0% (no tracer) and 100% (no inhibitor) control", "setting": "JNK2; inhibitor 50 nM, listed as RN341, 0.05 µM", "value": 96.724, "unit": "%"}, {"measurement": "remaining activity at 0.05 µM", "setting": "JNK2; inhibitor 50 nM, read-out: nanoBRET response normalized to 0% (no tracer) and 100% (no inhibitor) control", "value": 91.7, "unit": "%"}, {"measurement": "nanoBRET response normalized to 0% (no tracer) and 100% (no inhibitor) control", "setting": "JNK2; inhibitor 250 nM, listed as RN341, […]", "value": 80.9747, "unit": "%"}, {"measurement": "remaining activity at […]", "setting": "JNK2; inhibitor 250 nM, read-out: nanoBRET response normalized to 0% (no tracer) and 100% (no inhibitor) control", "value": 78.7, "unit": "%"}]}
